Test results reported in patent US9623025B2 (priority 2009, dated 2017).

Molecular target: hCA IX (Homo sapiens, UniProt Q16790)
Experiment: biochemical

Ki: 41.9 to 75.7 nM
SMILES: Cc1cn(-c2cc(NC(=O)c3ccc(C)c(Nc4nccc(-c5cccnc5)n4)c3)cc(C(F)(F)F)c2)cn1 [Nilotinib, 4-methyl-3-[[4-(3-pyridinyl)-2-pyrimidinyl]amino]-N-[5-(4-methyl-1H-imidazol-1-yl)-3-(trifluoromethyl)phenyl] benzamide]
